In PMC3640040, “Partial Agonism of Taurine at Gamma-Containing Native and Recombinant GABAA Receptors” (PLoS ONE, 2013):

Experiments:
[1] = molecular target: T1, α2β1 (Mus musculus; Rattus norvegicus, UniProt P15431+P26048); experiment: two-electrode voltage clamp, Xenopus oocytes; type: cell-based; conditions: read-out: Taurine / EC50
T1 construct: gene Gabra2; binary GABA-A receptor, mouse alpha2 + rat beta1; Xenopus oocytes
Description: two-electrode voltage clamp, Xenopus oocytes on α2β1

[2] = molecular target: T2, α2β1δ (Rattus norvegicus; Mus musculus; Homo sapiens, UniProt P15431+P26048); experiment: two-electrode voltage clamp, Xenopus oocytes; type: cell-based; conditions: read-out: Taurine / EC50
T2 construct: gene Gabra2; ternary GABA-A receptor, mouse alpha2 + rat beta1 + human delta; Xenopus oocytes, cRNA ratio 10:1:10; with Gamma-aminobutyric acid receptor subunit delta

[3] = molecular target: T3, α2β3 (Mus musculus; Homo sapiens, UniProt P26048+P28472); experiment: two-electrode voltage clamp, Xenopus oocytes; type: cell-based; conditions: read-out: Taurine / EC50
T3 construct: gene Gabra2; binary GABA-A receptor, mouse alpha2 + human beta3; Xenopus oocytes
T3 sequence (P26048 29-451): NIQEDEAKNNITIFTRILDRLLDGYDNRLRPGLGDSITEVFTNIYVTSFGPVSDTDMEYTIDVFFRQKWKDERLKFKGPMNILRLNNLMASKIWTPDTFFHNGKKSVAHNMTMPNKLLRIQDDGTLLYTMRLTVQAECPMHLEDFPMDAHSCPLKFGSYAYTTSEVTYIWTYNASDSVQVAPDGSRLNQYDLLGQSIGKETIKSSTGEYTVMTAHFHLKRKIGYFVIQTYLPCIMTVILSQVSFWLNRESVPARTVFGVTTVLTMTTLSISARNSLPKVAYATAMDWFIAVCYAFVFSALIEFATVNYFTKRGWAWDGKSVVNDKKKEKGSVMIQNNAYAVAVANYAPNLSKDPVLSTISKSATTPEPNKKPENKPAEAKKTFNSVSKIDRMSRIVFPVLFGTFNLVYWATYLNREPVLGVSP
T3 sequence (P28472 26-473): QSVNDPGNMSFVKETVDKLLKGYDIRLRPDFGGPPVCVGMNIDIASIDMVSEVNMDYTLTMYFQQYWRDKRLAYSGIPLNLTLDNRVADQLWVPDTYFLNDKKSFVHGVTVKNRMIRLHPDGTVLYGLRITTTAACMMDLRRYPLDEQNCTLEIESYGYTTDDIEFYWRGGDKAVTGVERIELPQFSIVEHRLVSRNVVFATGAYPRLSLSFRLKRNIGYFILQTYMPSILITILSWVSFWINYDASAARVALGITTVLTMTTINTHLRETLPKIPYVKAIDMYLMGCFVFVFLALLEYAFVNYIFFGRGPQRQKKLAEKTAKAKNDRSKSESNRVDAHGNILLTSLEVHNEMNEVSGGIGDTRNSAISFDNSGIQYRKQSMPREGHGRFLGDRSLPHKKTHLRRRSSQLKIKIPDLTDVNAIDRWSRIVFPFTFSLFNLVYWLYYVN

[4] = molecular target: T4, α2β1γ2 (δ74–79) (Mus musculus; Rattus norvegicus, UniProt P15431+P26048); experiment: two-electrode voltage clamp, Xenopus oocytes; type: cell-based; conditions: read-out: Taurine / EC50
T4 construct: gene Gabra2; mouse alpha2 + rat beta1 + mouse gamma2L with IDIFFA (74-79) replaced by delta motif MTVFLH; printed primers also encode T81S and Y83R, text names 74-79 only; Xenopus oocytes; with Gamma-aminobutyric acid receptor subunit gamma-2
Description: two-electrode voltage clamp, Xenopus oocytes on α2β1γ2 (δ74–79)

[5] = molecular target: T5, α2β1γ2 (Rattus norvegicus; Mus musculus, UniProt P15431+P26048); experiment: two-electrode voltage clamp, Xenopus oocytes; type: cell-based; conditions: read-out: Taurine / EC50
T5 construct: gene Gabra2; ternary GABA-A receptor, mouse alpha2 + rat beta1 + mouse gamma2L; Xenopus oocytes, cRNA ratio 10:1:10; with Gamma-aminobutyric acid receptor subunit gamma-2

[6] = molecular target: T6, α2β3γ2 (Mus musculus; Homo sapiens, UniProt P22723+P26048+P28472); experiment: two-electrode voltage clamp, Xenopus oocytes; type: cell-based; conditions: read-out: Taurine / EC50
T6 construct: gene Gabra2; ternary GABA-A receptor, mouse alpha2 + human beta3 + mouse gamma2L; Xenopus oocytes, cRNA ratio 10:1:10; agonist site alpha/beta, zolpidem site alpha/gamma

[7] = molecular target: T7, α2β3δ (Mus musculus; Homo sapiens, UniProt P26048+P28472); experiment: two-electrode voltage clamp, Xenopus oocytes; type: cell-based; conditions: read-out: Taurine / EC50
T7 construct: gene Gabra2; ternary GABA-A receptor, mouse alpha2 + human beta3 + human delta; Xenopus oocytes, cRNA ratio 10:1:10; with Gamma-aminobutyric acid receptor subunit delta
T7 sequence (P26048 29-451): T3 sequence (P26048 29-451)
T7 sequence (P28472 26-473): T3 sequence (P28472 26-473)
T7 sequence (O14764 25-452 partner): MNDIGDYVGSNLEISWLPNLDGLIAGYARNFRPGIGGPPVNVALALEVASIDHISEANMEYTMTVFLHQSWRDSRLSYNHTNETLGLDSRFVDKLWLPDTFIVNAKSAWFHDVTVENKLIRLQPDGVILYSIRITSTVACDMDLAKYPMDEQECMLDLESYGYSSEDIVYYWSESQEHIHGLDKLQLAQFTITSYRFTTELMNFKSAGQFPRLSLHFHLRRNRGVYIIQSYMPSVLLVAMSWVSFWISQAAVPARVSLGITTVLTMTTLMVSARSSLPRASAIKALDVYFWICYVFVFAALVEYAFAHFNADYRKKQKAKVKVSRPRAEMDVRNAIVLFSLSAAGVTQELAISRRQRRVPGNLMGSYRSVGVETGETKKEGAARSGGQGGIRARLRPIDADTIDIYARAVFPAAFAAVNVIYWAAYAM

[8] = molecular target: T8, α2β3γ2 (δ74–79) (Mus musculus; Homo sapiens, UniProt P22723+P26048+P28472, P22723:A117H/P22723:D113T/P22723:F116L/P22723:I112M/P22723:I114V/P22723:T119S/P22723:Y121R); experiment: cell-based; conditions: read-out: % of control GABA current at 1 μM
T8 construct: gene Gabra2
T8 sequence (P26048 29-451): T3 sequence (P26048 29-451)
T8 sequence (P28472 26-473): T3 sequence (P28472 26-473)
T8 sequence (P22723 39-474 I112M/D113T/I114V/F116L/A117H/T119S/Y121R): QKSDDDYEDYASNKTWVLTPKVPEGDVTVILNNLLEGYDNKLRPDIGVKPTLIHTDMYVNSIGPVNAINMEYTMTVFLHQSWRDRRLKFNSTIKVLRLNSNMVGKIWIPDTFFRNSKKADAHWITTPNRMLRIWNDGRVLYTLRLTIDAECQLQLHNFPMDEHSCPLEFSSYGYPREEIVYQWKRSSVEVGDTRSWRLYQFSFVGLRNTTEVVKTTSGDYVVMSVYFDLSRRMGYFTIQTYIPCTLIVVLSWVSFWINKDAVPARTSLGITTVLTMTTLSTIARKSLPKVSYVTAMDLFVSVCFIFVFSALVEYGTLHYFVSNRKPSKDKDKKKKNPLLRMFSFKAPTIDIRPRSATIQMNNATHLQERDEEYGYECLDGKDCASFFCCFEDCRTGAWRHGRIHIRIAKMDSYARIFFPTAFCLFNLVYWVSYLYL

T4 sequence (P15431 26-474, one chain of several): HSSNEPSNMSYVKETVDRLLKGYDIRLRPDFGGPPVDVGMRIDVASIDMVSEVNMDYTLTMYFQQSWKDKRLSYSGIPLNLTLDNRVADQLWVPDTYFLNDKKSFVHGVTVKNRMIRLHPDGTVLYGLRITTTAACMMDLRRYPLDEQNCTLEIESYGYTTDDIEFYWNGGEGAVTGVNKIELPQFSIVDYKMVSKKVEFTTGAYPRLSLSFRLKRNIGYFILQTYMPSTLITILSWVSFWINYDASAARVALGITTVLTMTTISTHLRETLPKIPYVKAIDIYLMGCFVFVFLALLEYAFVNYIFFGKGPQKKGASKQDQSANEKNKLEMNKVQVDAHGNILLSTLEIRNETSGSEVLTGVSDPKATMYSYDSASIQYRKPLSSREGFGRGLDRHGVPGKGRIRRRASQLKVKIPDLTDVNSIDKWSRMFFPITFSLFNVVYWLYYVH
T1 sequence (P15431 26-474, one chain of several): as above
T6 sequence (P22723 39-474, one chain of several): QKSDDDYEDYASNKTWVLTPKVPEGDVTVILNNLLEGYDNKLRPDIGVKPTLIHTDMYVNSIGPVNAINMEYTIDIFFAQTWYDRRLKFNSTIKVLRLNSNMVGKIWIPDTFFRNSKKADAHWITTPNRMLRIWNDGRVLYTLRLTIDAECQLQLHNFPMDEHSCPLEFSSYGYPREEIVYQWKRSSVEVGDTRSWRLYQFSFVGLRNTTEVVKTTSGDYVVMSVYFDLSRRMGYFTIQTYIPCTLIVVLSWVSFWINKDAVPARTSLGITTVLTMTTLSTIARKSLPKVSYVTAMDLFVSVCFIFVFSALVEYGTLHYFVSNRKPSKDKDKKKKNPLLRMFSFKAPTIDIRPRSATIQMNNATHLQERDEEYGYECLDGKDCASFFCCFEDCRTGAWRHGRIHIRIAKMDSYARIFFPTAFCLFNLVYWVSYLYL
T2 sequence (P15431 26-474, one chain of several): as the sequence (P15431 26-474, one chain of several) above
T5 sequence (P26048 29-451 F77I): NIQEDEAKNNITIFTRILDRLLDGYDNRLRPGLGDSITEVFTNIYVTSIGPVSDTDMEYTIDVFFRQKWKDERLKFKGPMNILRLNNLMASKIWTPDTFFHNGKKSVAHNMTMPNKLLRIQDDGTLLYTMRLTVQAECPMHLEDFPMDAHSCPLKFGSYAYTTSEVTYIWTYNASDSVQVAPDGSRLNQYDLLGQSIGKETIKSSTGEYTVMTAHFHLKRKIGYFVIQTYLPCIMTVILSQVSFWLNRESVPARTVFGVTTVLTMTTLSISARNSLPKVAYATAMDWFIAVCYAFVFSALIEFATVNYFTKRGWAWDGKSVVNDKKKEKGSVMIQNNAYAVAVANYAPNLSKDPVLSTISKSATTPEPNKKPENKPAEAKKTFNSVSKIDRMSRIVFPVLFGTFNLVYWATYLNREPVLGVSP
T5 sequence (P15431 26-474): as the sequence (P15431 26-474, one chain of several) above
T5 sequence (P22723 39-474 partner): as the sequence (P22723 39-474, one chain of several) above

For `NCCS(=O)(=O)O` [taurine, 2-aminoethane sulfonic acid], the EC50 [1] was 81.8 ± 24.9 mM, the EC50 [2] was 67.8 ± 15.9 mM and the EC50 [3] was 24.5 ± 11.2 mM. It also gave an EC50 [4] of 40.5 ± 6.9 mM, an EC50 [5] of 76.1 ± 3.9 mM and an EC50 [6] of 51.2 ± 19.8 mM. The EC50 [7] was 35.4 ± 2 mM.
With `Cc1ccc(-c2nc3ccc(C)cn3c2CC(=O)N(C)C)cc1` [zolpidem] the remaining activity at 1 µM [8] was 97 ± 7%.
